Assay results taken from patent US20010055755A1, “Dendritic marker-expressing macrophage cultures and methods for reactivating latent HCMV” (priority 1997, published 2001).

Tested on: HCMV
Experiment: HCMV infection of monocyte-derived dendritic cells with cytokine treatment
Type: cell-based
Settings: up to day 12 post stimulation, compared with unstimulated cells
Description: PBMC were isolated as described above and plated onto primaria plates for monocyte adherence. After two hours of culture, non-adherent cells were removed by three washes in serum free medium and adherent cells were stimulated with I1-4 (1000 U/ml) and GM-CSF (50 ng/ml) as previously described (Sallusto et al., J. Exp. Med. 179:1109-1118 (1994)). Immature dendritic cells cultured in RPMI medium containing 1% sodium pyruvate were developed during the first 12 days of culture. Cell samples were collected at 12 days for flow cytometric analysis to determine the expression of dendritic and macrophage markers. Small, round dendritic cells were stimulated with […] (10 ng/ml) and IFN-γ (500 U/ml) for two days. Thereafter, the mature, adherent dendritic cells were challenged with HCMV at a MOI of 10 or mock infected as described herein.
PBMC were cultured under standard conditions with IL-4 and GM-CSF to yield monocyte-derived dendritic cells (see, e.g., Annals Surg. 226:1-5 (1997)). The dendritic cells were infected in vitro under the conditions described herein with HCMV. […] Viral growth is measured as described with antibodies against viral proteins IE and gB. Viral growth is measured at days 1, 3, 8, 12, and 20 post infection.

IFN-γ: cytokine used at 500 U/ml to stimulate dendritic cells
viral expression in MDDC after additional stimulation: did not increase viral expression
